Measured values as given in ChEMBL document CHEMBL3856183, “Structure-activity relationships of 3-O-β-chacotriosyl oleanane-type triterpenoids as potential H5N1 entry inhibitors” (Eur J Med Chem, 2016).

Key:
cells = details: Influenza A virus, MDCK
[1] = Cytotoxicity against MDCK cells assessed as cell death after 2 days by MTT assay; assay type: toxicity, cell-based, Canis lupus familiaris; details: dog
[2] = Selectivity index, ratio of CC50 for MDCK cells to IC50 for Influenza A virus H5 subtype (A/Thailand/Kan353/2004(H5N1)) pseudovirus infected in MDCK cells co-infected with HA/HIV; assay type: functional
[3] = (§1) Binding affinity to Influenza A virus A/Vietnam/1194/2004(H5N1) Hemagglutinin by surface plasmon resonance analysis
[4] = tested on: Influenza A virus (A/Vietnam/1194/2004(H5N1)); experiment: as §1
[5] = (§2) Binding affinity to influenza A virus A/Vietnam/1194/2004(H5N1) Hemagglutinin 2 subunit by surface plasmon resonance analysis
[6] = tested on: Influenza A virus (A/Vietnam/1194/2004(H5N1)); experiment: as §2

**Q.** Which IC50 (cells) does the source give for CCOC(=O)[C@]12CCC(C)(C)C[C@H]1C1=CC[C@@H]3[C@@]4(C)CC[C@H](O[C@@H]5O[C@H](CO)[C@@H](O[C@@H]6O[C@@H](C)[C@H](O)[C@@H](O)[C@H]6O)[C@H](O)[C@H]5O[C@@H]5O[C@@H](C)[C@H](O)[C@@H](O)[C@H]5O)C(C)(C)[C@@H]4CC[C@@]3(C)[C@]1(C)CC2 here?
**A.** Its IC50 is 5.2 µM.

**Q.** And the CC50 at 48 h [1]?
**A.** The CC50 at 48 h was 37.4 µM.

**Q.** What about the “Ratio CC50/IC50” value [2] of the same molecule?
**A.** Its value is 7.2.

**Q.** With C[C@@H]1CC[C@@]2(OC1)O[C@H]1C[C@H]3[C@@H]4C[C@H](O)[C@H]5C[C@@H](O[C@@H]6O[C@H](CO)[C@@H](O[C@@H]7O[C@@H](C)[C@H](O)[C@@H](O)[C@H]7O)[C@H](O)[C@H]6O[C@@H]6O[C@@H](C)[C@H](O)[C@@H](O)[C@H]6O)CC[C@]5(C)[C@H]4CC[C@]3(C)[C@H]1[C@@H]2C as the molecule, how does the IC50 (cells) read?
**A.** Its IC50 is 7.92 µM.

**Q.** What about the CC50 at 48 h [1] of the same molecule?
**A.** The CC50 at 48 h was 18.3 µM.

**Q.** And the “Ratio CC50/IC50” value [2]?
**A.** The value was 2.3.

**Q.** For C[C@@H]1O[C@@H](O[C@H]2[C@H](O[C@H]3CC[C@]4(C)[C@H]5CC=C6[C@@H]7CC(C)(C)CC[C@]7(C(=O)N(C)C)CC[C@@]6(C)[C@]5(C)CC[C@H]4C3(C)C)O[C@H](CO)[C@@H](O[C@@H]3O[C@@H](C)[C@H](O)[C@@H](O)[C@H]3O)[C@@H]2O)[C@H](O)[C@H](O)[C@H]1O, which IC50 (cells) is on record?
**A.** Its IC50 is 2.36 µM.

**Q.** And the CC50 at 48 h [1]?
**A.** Its CC50 at 48 h is 70 µM.

**Q.** And the Kd [3]?
**A.** Its Kd is 0.00446 µM.

**Q.** What about the Activity [4] of the same molecule?
**A.** Its Activity is “Dose-dependent effect”.

**Q.** What about the Kd [5] of the same molecule?
**A.** The Kd was 0.0112 µM.

**Q.** And the Activity [6]?
**A.** Its Activity is “Dose-dependent effect”.

**Q.** And the “Ratio CC50/IC50” value [2]?
**A.** The value was 29.7.

**Q.** What does the source list for COC(=O)[C@]12CCC(C)(C)C[C@H]1C1=CC(=O)[C@@H]3[C@@]4(C)CC[C@H](O[C@@H]5O[C@H](CO)[C@@H](O[C@@H]6O[C@@H](C)[C@H](O)[C@@H](O)[C@H]6O)[C@H](O)[C@H]5O[C@@H]5O[C@@H](C)[C@H](O)[C@@H](O)[C@H]5O)C(C)(C)[C@@H]4CC[C@@]3(C)[C@]1(C)CC2?
**A.** IC50 (cells): 5.8 µM; CC50 at 48 h [1]: 17.9 µM; Ratio CC50/IC50 [2]: 3.1

**Q.** With CCCCCOC(=O)[C@]12CCC(C)(C)C[C@H]1C1=CC[C@@H]3[C@@]4(C)CC[C@H](O[C@@H]5O[C@H](CO)[C@@H](O[C@@H]6O[C@@H](C)[C@H](O)[C@@H](O)[C@H]6O)[C@H](O)[C@H]5O[C@@H]5O[C@@H](C)[C@H](O)[C@@H](O)[C@H]5O)C(C)(C)[C@@H]4CC[C@@]3(C)[C@]1(C)CC2 as the molecule, how does the IC50 (cells) read?
**A.** Its IC50 is 6.52 µM.

**Q.** What about the CC50 at 48 h [1] of the same molecule?
**A.** The CC50 at 48 h was 45.2 µM.

**Q.** What about the “Ratio CC50/IC50” value [2] of the same molecule?
**A.** The value was 6.9.

**Q.** With COC(=O)[C@]12CCC(C)(C)C[C@H]1C1=CC[C@@H]3[C@@]4(C)CC[C@H](O[C@@H]5O[C@H](CO)[C@@H](O[C@@H]6O[C@@H](C)[C@H](O)[C@@H](O)[C@H]6O)[C@H](O)[C@H]5O[C@@H]5O[C@@H](C)[C@H](O)[C@@H](O)[C@H]5O)C(C)(C)[C@@H]4CC[C@@]3(C)[C@]1(C)CC2 as the molecule, how does the IC50 (cells) read?
**A.** The IC50 was 4.74 µM.

**Q.** And the “Ratio CC50/IC50” value [2]?
**A.** Its value is 3.6.

**Q.** For C[C@@H]1O[C@@H](O[C@H]2[C@H](O[C@H]3CC[C@]4(C)[C@H]5CC=C6[C@@H]7CC(C)(C)CC[C@]7(C(=O)O)CC[C@@]6(C)[C@]5(C)CC[C@H]4C3(C)C)O[C@H](CO)[C@@H](O[C@@H]3O[C@@H](C)[C@H](O)[C@@H](O)[C@H]3O)[C@@H]2O)[C@H](O)[C@H](O)[C@H]1O, which IC50 (cells) is on record?
**A.** The IC50 was 9.39 µM.

**Q.** And the CC50 at 48 h [1]?
**A.** The CC50 at 48 h was 18.7 µM.

**Q.** And the “Ratio CC50/IC50” value [2]?
**A.** Its value is 2.

**Q.** With C[C@@H]1O[C@@H](O[C@H]2[C@H](O[C@H]3CC[C@]4(C)[C@H]5CC=C6[C@@H]7CC(C)(C)CC[C@]7(C=O)CC[C@@]6(C)[C@]5(C)CC[C@H]4C3(C)C)O[C@H](CO)[C@@H](O[C@@H]3O[C@@H](C)[C@H](O)[C@@H](O)[C@H]3O)[C@@H]2O)[C@H](O)[C@H](O)[C@H]1O as the molecule, how does the IC50 (cells) read?
**A.** The IC50 was 8.58 µM.

**Q.** And the CC50 at 48 h [1]?
**A.** Its CC50 at 48 h is 21.1 µM.

**Q.** And the “Ratio CC50/IC50” value [2]?
**A.** The value was 2.5.

**Q.** Which IC50 (cells) does the source give for COC(=O)[C@]12CCC(C)(C)C[C@H]1C1=CC[C@@H]3[C@@]4(C)CC[C@@H](O[C@@H]5O[C@H](CO)[C@@H](O[C@@H]6O[C@@H](C)[C@H](O)[C@@H](O)[C@H]6O)[C@H](O)[C@H]5O[C@@H]5O[C@@H](C)[C@H](O)[C@@H](O)[C@H]5O)C(C)(C)[C@@H]4CC[C@@]3(C)[C@]1(C)CC2 here?
**A.** The IC50 was 5.26 µM.

**Q.** What about the CC50 at 48 h [1] of the same molecule?
**A.** Its CC50 at 48 h is greater than 200 µM.

**Q.** What about the “Ratio CC50/IC50” value [2] of the same molecule?
**A.** The value was greater than 38.

**Q.** Which IC50 (cells) does the source give for CC1(C)CC[C@]2(C(=O)O)CC[C@]3(C)C(=CC[C@@H]4[C@@]5(C)CC[C@H](O)C(C)(C)[C@@H]5CC[C@]43C)[C@@H]2C1 [OLEANOLIC_ACID] here?
**A.** Its IC50 is greater than 50 µM.

**Q.** What about the CC50 at 48 h [1] of the same molecule?
**A.** Its CC50 at 48 h is 23.1 µM.

**Q.** What about the “Ratio CC50/IC50” value [2] of the same molecule?
**A.** The value was less than 1.

**Q.** What does the source list for CCN(CC)C(=O)[C@]12CCC(C)(C)C[C@H]1C1=CC[C@@H]3[C@@]4(C)CC[C@H](O[C@@H]5O[C@H](CO)[C@@H](O[C@@H]6O[C@@H](C)[C@H](O)[C@@H](O)[C@H]6O)[C@H](O)[C@H]5O[C@@H]5O[C@@H](C)[C@H](O)[C@@H](O)[C@H]5O)C(C)(C)[C@@H]4CC[C@@]3(C)[C@]1(C)CC2?
**A.** IC50 (cells): 2.48 µM; CC50 at 48 h [1]: 69 µM; Ratio CC50/IC50 [2]: 27.8

**Q.** Which results are given for COC(=O)[C@@]1(C)CC[C@]2(C)CC[C@]3(C)C(=CC(=O)[C@@H]4[C@@]5(C)CC[C@H](O[C@@H]6O[C@H](CO)[C@@H](O[C@@H]7O[C@@H](C)[C@H](O)[C@@H](O)[C@H]7O)[C@H](O)[C@H]6O[C@@H]6O[C@@H](C)[C@H](O)[C@@H](O)[C@H]6O)C(C)(C)[C@@H]5CC[C@]43C)[C@@H]2C1?
**A.** IC50 (cells): 4.1 µM; CC50 at 48 h [1]: 33.8 µM; Ratio CC50/IC50 [2]: 8.3

**Q.** Which “Ratio CC50/IC50” value [2] does the source give for O=C(NCCN1CCCCC1)c1cc(F)cc(C(F)(F)F)c1 here?
**A.** Its value is 332.3.

**Q.** With C[C@@H]1O[C@@H](O[C@H]2[C@H](O[C@H]3CC[C@]4(C)[C@H]5CC=C6[C@@H]7CC(C)(C)CC[C@]7(C(=O)OCc7ccccc7)CC[C@@]6(C)[C@]5(C)CC[C@H]4C3(C)C)O[C@H](CO)[C@@H](O[C@@H]3O[C@@H](C)[C@H](O)[C@@H](O)[C@H]3O)[C@@H]2O)[C@H](O)[C@H](O)[C@H]1O as the molecule, how does the IC50 (cells) read?
**A.** The IC50 was 5.62 µM.

**Q.** What about the CC50 at 48 h [1] of the same molecule?
**A.** Its CC50 at 48 h is 75.4 µM.

**Q.** And the “Ratio CC50/IC50” value [2]?
**A.** The value was 13.4.

**Q.** Which IC50 (cells) does the source give for C[C@@H]1O[C@@H](O[C@H]2[C@H](O[C@H]3CC[C@]4(C)[C@H]5CC=C6[C@@H]7CC(C)(C)CC[C@]7(C(=O)OC7CCCC7)CC[C@@]6(C)[C@]5(C)CC[C@H]4C3(C)C)O[C@H](CO)[C@@H](O[C@@H]3O[C@@H](C)[C@H](O)[C@@H](O)[C@H]3O)[C@@H]2O)[C@H](O)[C@H](O)[C@H]1O here?
**A.** The IC50 was 4.8 µM.

**Q.** And the CC50 at 48 h [1]?
**A.** Its CC50 at 48 h is 58.2 µM.

**Q.** What about the “Ratio CC50/IC50” value [2] of the same molecule?
**A.** The value was 12.1.

**Q.** Which IC50 (cells) does the source give for COC[C@]12CCC(C)(C)C[C@H]1C1=CC[C@@H]3[C@@]4(C)CC[C@H](O[C@@H]5O[C@H](CO)[C@@H](O[C@@H]6O[C@@H](C)[C@H](O)[C@@H](O)[C@H]6O)[C@H](O)[C@H]5O[C@@H]5O[C@@H](C)[C@H](O)[C@@H](O)[C@H]5O)C(C)(C)[C@@H]4CC[C@@]3(C)[C@]1(C)CC2 here?
**A.** The IC50 was greater than 20 µM.

**Q.** What about the CC50 at 48 h [1] of the same molecule?
**A.** Its CC50 at 48 h is 16.8 µM.

**Q.** And the “Ratio CC50/IC50” value [2]?
**A.** Its value is less than 1.
